In US6465716B2, “Nod factor binding protein from legume roots” (The Regents of the University of California, priority 1997, dated 2002):
Blank lines part the entries; values can stand above or below the molecule they belong to.

How the values were obtained:
NBP46 [1] = target: T1, NBP46 (Vigna unguiculata, UniProt Q9XFC9); assay: competitive binding assay with chitin as solid phase: inhibition of binding of 125I-NBP46 to chitin; design: species or system Dolichos biflorus; conditions: for inhibition of binding of 125I-NBP46 to chitin: relative inhibition, in words
Method: B. japonicum USDA110 Nod factor (^▪); R. sp. NGR234(NGRA) Nod factor (^▴); R. sp. NGR234(NGRB) Nod factor (∇); R. meliloti Nod factor (^●), N-acetylglucosamine (□), chitin disaccharide (^▾); chitin tetrasaccharide (Δ); chitin pentasaccharide (♦), chitin hexasaccharide (O).
Using chitin as a solid phase, a competitive binding assay was utilized to examine the carbohydrate specificity of this protein (FIG. 3).
Solid phase binding assays were conducted using iodinated NBP46 and purified shrimp chitin powder (Sigma Chemical Company, St. Louis, Mo.), which was N-acetylated prior to use with 15 mM acetic anhydride in 0.5 M NaHCO3 for one hour at room temperature. The assays were conducted in a final volume of 100 μl of 10 mM MOPS buffer, pH 7.2, containing 0.02% Tween-20 and 0.01% NaN3.

NBP46 [2] = target: T1, NBP46; assay: phosphatase (phosphohydrolase) assay of NBP46; type: biochemical, Dolichos biflorus; conditions: in words; for hydrolysis of phosphate from substrate by NBP46 (phosphohydrolase activity): substrate specificity
Method: (§1) The sequence similarities found between NBP46 and the above enzymes prompted the testing of NBP46 for phosphohydrolase activity. The reactions were conducted in 300 μL of 60 mM MOPS, pH 6.8, containing 1 mM MgCl2 in a microtiter plate using a multichannel pipette. At various time points up to 4 minutes, 30 or 60 μL aliquots were removed and assayed for inorganic phosphate by a photometric microtiter assay (Drueckes, P., et al., Anal. Biochem. 230:173 (1995)). Conditions were chosen so that less than 10% of the total substrate was converted to product, and the initial velocity (v) was determined from the above rate measurements.
(§2) N-BP46 (201 ng/ml) was incubated at 25° C. in the presence of various concentrations of substrate in a final volume of 100 μl of 60 mM MOPS, pH 6.8, containing 1 mM MgCl2. The reactions were conducted in a microtiter plate using a multichannel pipette. At various time points, 30 μl aliquots were removed and assayed for inorganic phosphate by a photometric microtiter assay (Drueckes, P. et al. Anal. Biochem. 230:173 (1995)), modified by using four parts ammonium molybdate reagent to one part 10% ascorbate for the reagent mixture. Conditions were chosen so that less than 10% of the total substrate was converted to product.

NBP46 [3] = target: T1, NBP46; assay: competitive solid phase assay: inhibition of binding of 125I-NBP46 to HBG A+H-Sepharose; design: species or system Dolichos biflorus; conditions: up to 50 mM concentrations
Text: In a preferred embodiment, a competitive solid phase assay is used to measure NBP46 activity (Etzler, M. E., Glycoconj. J. 11:395 (1994)). This assay measures the ability of various ligands to inhibit the binding of labeled NBP46 protein to pronase-digested hog gastric mucin blood group A+H substance (HBG A+H) conjugated to Sepharose® (Quinn, J. M. & Etzler, M. E., Arch. Biochem. Biophys. 258:535 (1987)).
The monomeric nature of NBP46 in solution precluded the use of conventional precipitin or agglutination assays in determining the carbohydrate binding specificity of this lectin. Therefore a complex carbohydrate binding assay was employed (Etzler, M. E., Glycoconj. J. 11:395 (1994)).
Hog blood group A+H substance was isolated from hog gastric mucin (Etzler, M. E., Glyconj. J. 11:395 (1994)) and de-N-acetylated as described in Etzler, M. E., et al., Arch. Biochem. Biophys. 141:588 (1970). After incubation at room temperature overnight, binding was measured as previously described (Etzler, M. E., Glyconj. J. 11:395 (1994)).

[4] = substrate: Nc1ncnc2c1ncn2[C@@H]1O[C@H](COP(=O)(O)OP(=O)(O)O)[C@@H](O)[C@H]1O; assay: phosphatase (phosphohydrolase) assay of NBP46; type: biochemical, Dolichos biflorus; conditions: other: 60 mM MOPS, pH 6.8, 1 mM MgCl2, 25.0 °C
Method: as §1, §2

Molecule: CC(=O)NC1C(O)OC(CO)C(OC2OC(CO)C(OC3OC(CO)C(OC4OC(CO)C(OC5OC(CO)C(OC6OC(CO)C(O)C(O)C6NC(C)=O)C(O)C5NC(C)=O)C(O)C4NC(C)=O)C(O)C3NC(C)=O)C(O)C2NC(C)=O)C1O (stereo not drawn) [chitin hexasaccharide]
inhibition of binding of 125I-NBP46 to chitin (NBP46 [1]): slightly better inhibitors than the disaccharide

Molecule: Nc1nc2c(ncn2[C@@H]2O[C@H](COP(=O)(O)OP(=O)(O)OP(=O)(O)O)[C@@H](O)[C@H]2O)c(=O)[nH]1 [GTP]
hydrolysis of phosphate from substrate by NBP46 (phosphohydrolase activity) (NBP46 [2]): broad specificity for nucleotide triphosphates

Molecule: CC(=O)N[C@H]1[C@H](O[C@H]2[C@H](O)[C@@H](NC(C)=O)C(O)O[C@@H]2CO)O[C@H](CO)[C@@H](O)[C@@H]1O (stereo partly drawn) [chitin disaccharide]
inhibition of binding of 125I-NBP46 to chitin (NBP46 [1]): approximately ten-fold better inhibition than the monosaccharide

Molecule: O=c1ccn([C@@H]2O[C@H](COP(=O)(O)OP(=O)(O)OP(=O)(O)O)[C@@H](O)[C@H]2O)c(=O)[nH]1 [UTP]
hydrolysis of phosphate from substrate by NBP46 (phosphohydrolase activity) (NBP46 [2]): broad specificity for nucleotide triphosphates

hydrolysis of phosphate from substrate by NBP46 (phosphohydrolase activity) (NBP46 [2]): no activity
Molecule: Nc1ncnc2c1ncn2[C@@H]1O[C@H](COP(=O)(O)O)[C@@H](O)[C@H]1O [AMP]

Molecule: CC(=O)N[C@@H]1[C@@H](O)[C@H](O)[C@@H](CO)O[C@H]1O [N-acetyl-D-glocosamine]
phosphatase activity / Vmax of NBP46 after preincubation with ligand (NBP46 [2]; concentration range as worded): increase in enzyme activity is also obtained with low millimolar concentrations | inhibition of binding of 125I-NBP46 to chitin (NBP46 [1]): Inhibition of binding was obtained with high concentrations

inhibition of NBP46 binding to chitin (NBP46 [1]; concentrations up to 1.2 mM): No significant inhibition
Molecule: CCCCCC/C=C\CCCCCCCCCC(=O)O [cis-vaccenic acid]

hydrolysis of phosphate from substrate by NBP46 (phosphohydrolase activity) (NBP46 [2]): catalyzes the hydrolysis of phosphate
Molecule: Nc1ncnc2c1ncn2[C@@H]1O[C@H](COP(=O)(O)OP(=O)(O)O)[C@@H](O)[C@H]1O [ADP]

inhibition of binding of 125I-NBP46 to HBG A+H-Sepharose (NBP46 [3]): no significant inhibition
Molecule: CC(=O)N[C@H]1C(O)O[C@H](CO)[C@H](O)[C@@H]1O (stereo partly drawn) [N-acetyl-D-galactosamine]

inhibition of NBP46 binding to chitin (NBP46 [1]; concentrations up to 50 mM): No significant inhibition | inhibition of binding of 125I-NBP46 to HBG A+H-Sepharose (NBP46 [3]): no significant inhibition
Molecule: C[C@H](O)[C@@H](O)[C@@H](O)[C@H](O)C=O [L-fucose]

hydrolysis of phosphate from substrate by NBP46 (phosphohydrolase activity) (NBP46 [2]): no activity
Molecule: O=C[C@H](O)[C@@H](O)[C@H](O)[C@H](O)COP(=O)(O)O [glucose-6-phosphate]

Molecule: Nc1ccn([C@@H]2O[C@H](COP(=O)(O)OP(=O)(O)OP(=O)(O)O)[C@@H](O)[C@H]2O)c(=O)n1 [CTP]
hydrolysis of phosphate from substrate by NBP46 (phosphohydrolase activity) (NBP46 [2]): broad specificity for nucleotide triphosphates

Molecule: Nc1ncnc2c1ncn2[C@@H]1O[C@H](COP(=O)(O)OP(=O)(O)OP(=O)(O)O)[C@@H](O)[C@H]1O [ATP]
hydrolysis of phosphate from substrate by NBP46 (phosphohydrolase activity) (NBP46 [2]): catalyzes the hydrolysis of phosphate

Molecule: CC(=O)N[C@@H]1[C@@H](O)[C@H](O[C@@H]2O[C@H](CO)[C@@H](O[C@@H]3O[C@H](CO)[C@@H](O[C@@H]4O[C@H](CO)[C@@H](O[C@@H]5O[C@H](CO)[C@@H](O)[C@H](O)[C@H]5NC(C)=O)[C@H](O)[C@H]4NC(C)=O)[C@H](O)[C@H]3NC(C)=O)[C@H](O)[C@H]2NC(C)=O)[C@@H](CO)O[C@H]1O [chitin pentasaccharide]
inhibition of binding of 125I-NBP46 to chitin (NBP46 [1]): slightly better inhibitors than the disaccharide

Molecule: O=P(O)(O)OP(=O)(O)O [pyrophosphate]
hydrolysis of phosphate from substrate by NBP46 (phosphohydrolase activity) (NBP46 [2]): no activity

B1: NBP46 (Vigna unguiculata subsp. cylindrica) (protein)
chain: QYVGNSILLNHRKILPNQELLTSYAVIFDAGSSGSRVHVFNFDQNLDLLHIGNDLEFTKKIKPGLSSYADKPEKAAESLIPLLEEAEDVVPEELHPKTPLKLGATAGLRLLDGDAAEKILQAVREMFRNRSSLSVQPDAVSVIDGTQEGSYLWVTVNYLLGKLGKKFTKTVGVIDLGGASVQMAYAVSRNTAKNAPKPPQGEDPYMKKLVLKGKKYDLYVHSYLRYGNDAARVKIFKTTDGAASPCLLAGYEDIYRYSGESYNIYGPTSGANFNECRDLALQILRLNEPCSHENCTFGGIWDGGKGSGQKNLVVTSAFYYRSSEVGFVTPPNSKNRPLDFETAAKQACSLTFEEAKSTFPNVEKDKLPFVCVDFTYQYTLLVDGFGLDPEQEITVAEGIEYQDAIVETAWPLGTAIEAISSLPKFNRLMYFI
Km [4]: 615 µM
